Publication PMC9227305, “Photoinduced Synthesis of Methylated Marine Cyclopeptide Galaxamide Analogs with Isoindolinone as Anticancer Agents” (Marine Drugs, 2022)
Values joined by “and” are separate entries in the source; they are usually repeats but may differ in a detail not shown here. Equal entries are not always repeated. Where two headings read alike, the source gives them in different places. *1 amine or outer side, *2 acyl side, *3 side chain or, on linkers, in order; H or OH if unused. Where a SMILES comes first, the peptide text is derived from it. [ ]: non-standard residue; d: D form. X1 = O=C1c2ccccc2[C@@](O)(CN(Cc2ccccc2)[*:1])N1CC(=O)[*:2]; X2 = O=C1c2ccccc2[C@](O)(CN(Cc2ccccc2)[*:1])N1CC(=O)[*:2]; NMeL = CN[C@@H](CC(C)C)C(=O)O; dNMeL = CN[C@H](CC(C)C)C(=O)O

Columns and labels:
HepG-2 cells = assay: cells
Description: (§1) The antitumor activity of the prepared cyclic peptides against human hepatocellular carcinoma cells (HepG-2), human cervical cancer cell lines (HeLa) and human breast cancer cells (MDA-MB-231) was examined by MMT assay, and the mouse fibroblast L929 cells were used as the model cells to evaluate the toxicity of cyclopeptides to normal cell lines. Due to the absence of an authentic standard, taxol was chosen as a control because it is a widely used chemotherapeutic drug for the treatment of various cancers, including liver cancer.
(§2) Samples were dissolved in DMSO and diluted into different concentrations ([…], 18.75, 25, 37.5, 50, 75, 100 and 250 μM) and stored at 4 °C. Cells in the logarithmic growth phase were digested with trypsin and then seeded in 96-well plates at a density of 2 × 10^4 cells/well in 100 μL of culture medium. The cells were treated with different concentrations of the tested compound, and a blank control group without the drug was also set up. Six wells were repeated for each dose. After 48 h of co-incubation, MTT solution (100 μL, 0.5 mg/mL) was added, followed by incubation for another 4 h. After discarding the supernatant, 100 μL of DMSO was added per well, and the absorbance (OD) values were measured at 490 nm using an enzyme marker. Cell viability was calculated by the formula: Cell viability (%) = As/Ab × 100% (where As is the absorbance value of the experimental group and Ab is the absorbance value of the blank group). The obtained data were processed using SPSS19 software to obtain IC50 values.

L929 cells = assay: cells
Description: as §1, §2

MDA-MB-231 cells = type: cell-based, human; conditions: 48 h
Description: as §1, §2

[1] = tested on: renal carcinoma GRC-1 cell lines; set-up: method as in PMID 18816120; conditions: cited from earlier work
[2] = tested on: human hepatocellular carcinoma HepG-2 cell lines; set-up: method as in PMID 18816120; conditions: cited from earlier work
[3] = other bond; 21-membered ring; hv (450 W Hg lamp, Pyrex), SET photocyclization

Q: Which results are given for `CC(C)C[C@@H]1C(=O)N[C@H](CC(C)C)C(=O)N(C)[C@H](CC(C)C)C(=O)N[C@H](CC(C)C)C(=O)N(Cc2ccccc2)C[C@@]2(O)c3ccccc3C(=O)N2CC(=O)N[C@H](CC(C)C)C(=O)N1C` [Compound 1, 3-Hydroxy-isoindolinone-cyclo-(Gly-Leu-N-Me-Leu-Leu-N-Me-Leu-Leu)] (cyclo([dNMeL][dL][dNMeL][dL][X2][dL]))?
A: IC50 (HepG-2 cells; 48 h): 38.4 ± 2.2 µM; IC50 (L929 cells; 48 h): > 400 µM; IC50 (MDA-MB-231 cells): 59.3 ± 2.3 µM

Q: What does the source list for `CC(=O)O[C@H]1C(=O)[C@@]2(C)[C@H]([C@H](OC(=O)c3ccccc3)[C@]3(O)C[C@H](OC(=O)[C@H](O)[C@@H](NC(=O)c4ccccc4)c4ccccc4)C(C)=C1C3(C)C)[C@]1(OC(C)=O)CO[C@@H]1C[C@@H]2O` [Taxol, paclitaxel, reference compound]?
A: IC50 (HepG-2 cells; Homo sapiens, HepG2, 48 h, read-out: IC50 HepG-2): 40.9 ± 5.2 µM; IC50 (L929 cells; Mus musculus, L929, 48 h, read-out: IC50 L929): 141 ± 9.3 µM

Q: With `CC(C)C[C@@H]1C(=O)N[C@H](CC(C)C)C(=O)N[C@H](CC(C)C)C(=O)N[C@H](CC(C)C)C(=O)N(Cc2ccccc2)C[C@]2(O)c3ccccc3C(=O)N2CC(=O)N[C@H](CC(C)C)C(=O)N1C` [Compound 6, 3-Hydroxy-isoindolinone-cyclo-Gly-Leu-N-Me-Leu-Leu-Leu-Leu] (cyclo([dL][dL][X1][dL][dNMeL][dL])) as the compound, how does the IC50 (HepG-2 cells; 48 h) read?
A: 36.1 ± 2.2 µM

Q: And the IC50 (L929 cells; 48 h)?
A: 120 ± 5.3 µM

Q: And the IC50 (MDA-MB-231 cells)?
A: 67.6 ± 2.3 µM

Q: Which IC50 (HepG-2 cells; 48 h) does the source give for `CC(C)C[C@H]1NC(=O)[C@H](CC(C)C)N(C)C(=O)[C@@H](CC(C)C)NC(=O)[C@H](CC(C)C)N(C)C(=O)[C@@H](CC(C)C)NC(=O)CN2C(=O)c3ccccc3[C@]2(O)CN(Cc2ccccc2)C1=O` [Compound 2, 3-Hydroxy-isoindolinone-cyclo-Gly-Leu-N-Me-Leu-Leu-N-Me-Leu-Leu] (cyclo([NMeL][dL][NMeL][dL][X2][dL])) here?
A: 72.1 ± 5.8 µM

Q: And the IC50 (L929 cells; 48 h)?
A: 364 ± 15.6 µM

Q: And the IC50 (MDA-MB-231 cells)?
A: 67.6 ± 3.3 µM

Q: What does the source list for “cyclo-(L-Leu-L-N-Me-Leu-L-Leu-L-Leu-L-N-Me-Leu-L-Leu) [galaxamide]”?
A: in vitro antitumor activity [1]: strong; in vitro antitumor activity [2]: strong

Q: For “3-Hydroxy-isoindolinone-cyclo-Gly-Leu-N-Me-Leu-Leu-Leu-Leu”, which ring closure, isolated yield [3] is on record?
A: 25% and 23%

Q: What does the source list for `CC(C)C[C@@H]1C(=O)N[C@H](CC(C)C)C(=O)N[C@H](CC(C)C)C(=O)N[C@H](CC(C)C)C(=O)N(Cc2ccccc2)C[C@]2(O)c3ccccc3C(=O)N2CC(=O)N[C@H](CC(C)C)C(=O)N1C` [Compound 5, 3-Hydroxy-isoindolinone-cyclo-Gly-Leu-Leu-Leu-N-Me-Leu-Leu] (cyclo([dL][dL][X1][dL][dNMeL][dL]))?
A: IC50 (HepG-2 cells; 48 h): 28.2 ± 6.2 µM; IC50 (L929 cells; 48 h): 153 ± 10.7 µM; IC50 (MDA-MB-231 cells): 60.8 ± 8.2 µM

Q: With `CC(C)C[C@@H]1NC(=O)[C@H](CC(C)C)NC(=O)[C@H](CC(C)C)N(C)C(=O)[C@H](CC(C)C)NC(=O)CN2C(=O)c3ccccc3[C@@]2(O)CN(Cc2ccccc2)C(=O)[C@H](CC(C)C)NC1=O` [Compound 7, 3-Hydroxy-isoindolinone-cyclo-Gly-Leu-Leu-Leu-N-Me-Leu-Leu] (cyclo(LL[X1]L[NMeL]L)) as the compound, how does the IC50 (HepG-2 cells; 48 h) read?
A: 30.4 ± 1.6 µM

Q: And the IC50 (L929 cells; 48 h)?
A: > 400 µM

Q: And the IC50 (MDA-MB-231 cells)?
A: 112 ± 9 µM

Q: For “3-Hydroxy-isoindolinone-cyclo-Gly-Leu-Leu-Leu-N-Me-Leu-Leu”, which ring closure, isolated yield [3] is on record?
A: 24% and 28%

Q: With “3-Hydroxy-isoindolinone-cyclo-(Gly-Leu-N-Me-Leu-Leu-N-Me-Leu-Leu)” as the compound, how does the ring closure, isolated yield [3] read?
A: 51%

Q: Which results are given for `CC(C)C[C@@H]1NC(=O)[C@H](CC(C)C)N(C)C(=O)[C@H](CC(C)C)NC(=O)[C@H](CC(C)C)N(C)C(=O)[C@H](CC(C)C)NC(=O)CN2C(=O)c3ccccc3[C@@]2(O)CN(Cc2ccccc2)C1=O` [Compound 4, 3-Hydroxy-isoindolinone-cyclo-Gly-Leu-N-Me-Leu-Leu-N-Me-Leu-Leu] (cyclo([NMeL]L[NMeL]L[X1]L))?
A: IC50 (HepG-2 cells; 48 h): 81 ± 4.29 µM; IC50 (L929 cells; 48 h): 310 ± 20.1 µM; IC50 (MDA-MB-231 cells): 95.3 ± 8.6 µM

Q: Which IC50 (HepG-2 cells; 48 h) does the source give for `CC(C)C[C@@H]1NC(=O)[C@@H](CC(C)C)N(C)C(=O)[C@H](CC(C)C)NC(=O)[C@@H](CC(C)C)N(C)C(=O)[C@H](CC(C)C)NC(=O)CN2C(=O)c3ccccc3[C@]2(O)CN(Cc2ccccc2)C1=O` [Compound 3, 3-Hydroxy-isoindolinone-cyclo-Gly-Leu-N-Me-Leu-Leu-N-Me-Leu-Leu] (cyclo([dNMeL]L[dNMeL]L[X2]L)) here?
A: 90.9 ± 7.69 µM

Q: What about the IC50 (L929 cells; 48 h) of the same compound?
A: > 400 µM

Q: And the IC50 (MDA-MB-231 cells)?
A: 73.2 ± 2.8 µM

Q: For “3-Hydroxy-isoindolinone-cyclo-Gly-Leu-N-Me-Leu-Leu-N-Me-Leu-Leu”, which ring closure, isolated yield [3] is on record?
A: 48% and 43% and 45%
